Measured values published in PMC6861283, “Novel Small Molecules Targeting the Intrinsically Disordered Structural Ensemble of α-Synuclein Protect Against Diverse α-Synuclein Mediated Dysfunctions” (Scientific Reports, 2019).

Assays:
α-synuclein (αSyn) [1] = molecular target: T1, α-synuclein (αSyn) (Homo sapiens, UniProt P37840); assay: split Gaussia luciferase oligomerization assay; also FRET oligomerization, HT-CM-SPR hit (tethered); format: biochemical; design: gene SNCA; αSyn-GLuc1 and αSyn-GLuc2 (split Gaussia luciferase fragment fused to the C-terminus of αSyn); monomeric αSyn in SPR
α-synuclein (αSyn) [2] = molecular target: T1, α-synuclein (αSyn); assay: split Gaussia luciferase oligomerization assay; also FRET oligomerization, ThT fibrillization, HT-CM-SPR hit (tethered); format: biochemical; design: gene SNCA; αSyn-GLuc1 and αSyn-GLuc2 (split Gaussia luciferase fragment fused to the C-terminus of αSyn); monomeric αSyn in SPR and fibrillization

| IC50 (α-synuclein (αSyn) [1]) [µM] | IC50 (α-synuclein (αSyn) [2]) [µM] | Compound |
| --- | --- | --- |
| 104 | – | Cc1c(-c2csc(NC(C(N)=O)C3CCNCC3)n2)sc2ccccc12 (stereo not drawn) [compound 573437, 573437] |
| – | 10.5 | CNC(=O)c1cc(O)ccc1N [compound 576755, 576755] |
| – | 290 | CNC(=O)CN(C(=O)Cc1noc2ccccc12)C(C)c1ccc(Cl)cc1 (stereo not drawn) [compound 582032, 582032] |
